Patent US8193377B2, “(−)-epigallocatechin gallate derivatives for inhibiting proteasome” (The Hong Kong Polytechnic University, priority 2004, dated 2012)

Tests used:
[1] = molecular target: T1, purified rabbit 20s proteasome (Oryctolagus cuniculus, UniProt G1T4Q9); assay: Inhibition of chymotrypsin-like activity of purified 20S proteasome; type: biochemical
T1 construct: purchased Boston Biochem (Cambridge, Mass.)
T1 sequence (G1T4Q9 1-263): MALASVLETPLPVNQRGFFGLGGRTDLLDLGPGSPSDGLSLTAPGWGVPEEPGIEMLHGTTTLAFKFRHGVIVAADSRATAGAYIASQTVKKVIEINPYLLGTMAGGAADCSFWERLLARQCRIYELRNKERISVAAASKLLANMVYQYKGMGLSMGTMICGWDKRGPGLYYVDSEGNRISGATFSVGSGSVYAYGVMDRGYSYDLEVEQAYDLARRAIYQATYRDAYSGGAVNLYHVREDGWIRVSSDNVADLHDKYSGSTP
Procedure: Measurement of the chyrnotrypsin-like activity of the 20s proteasome was performed by incubating 0.5 μg of purified rabbit 20s proteasome with 40 μM fluorogenic peptide substrate, Suc-Leu-Leu-Val-Tyr-AMC, with or without various concentrations of natural and synthetic tea polyphenols as described previously (Nam S et. al.).
In order to test this hypothesis, proteasome activity was tested both in vitro and in intact Jurkat T cells with either 1 or (−)-EGCG (as a positive control). First, 1 and commercial (−)-EGCG were dissolved in DMSO and their effects on the chymotrypsin-like activity of purified 20S proteasomes were measured. […] In contrast, (−)-EGCG at 10 μM inhibited 80-90% of the proteasomal chymotrypsin-like activity. Therefore, as predicted, 1 outside of a cellular system is not a proteasome inhibitor.
Up to 25 μM of all protected and unprotected compounds were incubated with a purified 20s proteasome and a fluorogenic substrate for chyrnotrypsin activity for 30 min. The half-maximal inhibitory concentration or IC50 was then determined. […] This is consistent with the results above.

VA-13 cells [2] = assay: Immunostaining of apoptotic cells with anti-cleaved PARP-FITC; type: cell-based, human; conditions: 25 μM, 24 h
Procedure: Immunostaining of apoptotic cells was performed by addition of a FITC-conjugated polyclonal antibody that recognizes cleaved poly(ADP-ribose) polymerase (PARP) and visualized on an Axiovert 2 5 (Zeiss; Thornwood, N.Y.) microscope. Cells were grown to about 80% confluency in 60 mm dishes. VA-13 cells were then treated with VP-16, 2, or 2a (25 μM) for 24 h. Following treatment, both suspension and adhering cells were collected and washed twice in PBS pH 7.4. The cells were washed between all steps listed below and all washes are 1 min duration with PBS. Cells were then fixed in ice-cold 70% ethanol, permeabilized in 0.1% Triton-X-100 and blocked for 30 min in 1% bovine serum albumin (BSA) at room temperature. Incubation with the primary FITC-conjugated-p85/PARP antibody was for 30 min at 4° C. in the dark with mild shaking. Cell suspension was then transferred to glass slides in the presence of Vector Shield mounting medium with DAPI. Images were captured using AxioVision 4.1 and adjusted using Adobe Photoshop 6.0 software. Cell death was quantified by counting the number of apoptotic cells over the total number of cells in the same field. Data are mean of duplicate experiments ±SD.
(§1) It has been shown that proteasome inhibition can induce apoptosis in a wide variety of cancer cells, but not in normal, non-transformed cells (An B et al). Jurkat T cells are treated with 25 μM of each of the selected polyphenols and their protected analogs for 24 h to investigate their abilities to induce apoptotic cell death. […] The unprotected 2 induced much less apoptosis (21%), while 25 μM VP-16, used as a positive control, induced 92% apoptosis (FIGS. 10C and 10D). Counterstain with DAPI, which binds to the minor groove in A-T rich regions of DNA, was decreased drastically in apoptotic cells (FIG. 10C), consistent with DNA fragmentation in late stage apoptosis.

VA-13 cells [3] = assay: Nuclear staining (Hoechst) for apoptotic morphology, VA-13; type: cell-based, human; conditions: 25 μM, 24 h
Procedure: After each drug treatment, both detached and attached VA-13 and WI-38 cells were stained Hoechst 33342 to assess for apoptosis. Briefly, cells were washed 2× in PBS, fixed for 1 h with 70% ethanol at 4° C., washed 3× in PBS, and stained with […] Hoechst for 30 min in the dark at room temperature. Detached cells were plated on a slide and attached cells were visualized on the plate with a fluorescent microscope at 10× or 40× resolution (Zeiss, Germany). Digital Scientific obtained images with AxioVision 4.1 and adjusted using Adobe Photoshop 6.0.
Next, apoptotic nuclear morphology is examined after treatment with natural (−)-EGCG, 2, and 2a (FIG. 12B). […] A comparison among all the protected analogs was then performed using 25 μM for 24 h. […] All of the protected analogs induced apoptosis in transformed (VA-13), but not normal (WI-38) cells (FIGS. 12B and 12C).

[4] = system: ubiquitinated proteins, Bax, p27, IκBα in Jurkat T cells; assay: Western blot for ubiquitinated proteins and proteasome targets (Bax, p27, IκBα) in Jurkat T cells; type: cell-based, human; conditions: 25 μM
Procedure: (§2) Whole cells extracts were prepared as described previously (An B, Goldfarb R H, Siman R, Dou Q P. Novel dipeptidyl proteasome inhibitors overcome Bc1-2 protective function and selectively accumulate the cyclin-dependent kinase inhibitor p27 and induce apoptosis in transformed, but not normal, human fibroblasts. Cell Death Differ 1998; 5: 1062-75.). Analysis of Bax, IKBa, p27, PAW, and ubiquitinated protein expression were performed using monoclonal or polyclonal antibodies according to previously reported protocols (An B et. al.).
To determine what effects the synthetic tea analogs had on the proteasome in vivo, Jurkat cells were treated with 25 μM of each synthetic compound for either 4 or 24 h, with (−)-EGCG as a control (FIGS. 9A and 9B). […] This is consistent with the idea that protected analogs are potent inhibitors of the proteasome at an earlier time point and that after 24 h of treatment the ubiquitinated proteins are being depleted by deubiquitinating enzymes. […] The putative ubiquitinated IκBα band is still found in cells treated with 2a, 3a, and 4a (FIG. 9B, Lanes 9, 5, 7). The presumed ubiquinated IκBα band is now absent in the 24 h treatment, possibly due to deubiquitination (FIG. 9B). Actin was used as a loading control in this experiment.
The pro-apoptotic protein Bax and the cyclin-dependent kinase inhibitor p27 are natural proteasome targets. If the peracetate-protected polyphenols inhibit the intact proteasome activity, we would expect accumulation of Bax and p27 in these cells. To test this idea, Jurkat T cells were treated with both protected and unprotected compounds and lysates were analyzed by Western blot using specific antibodies to Bax and p27 (FIG. 15). After 4 h of treatment, the peracetate-protected analogs 24* and 19*, but not their unprotected analogs, were able to increase accumulation of both Bax (by 3- and 2.5-fold, respectively) and p27 (6- and 11-fold, respectively) (FIG. 15A). After 24 h treatment, Bax levels were increased in cells treated with all of the peracetate-protected compounds (13-, 12-, 40- and 36-fold, respectively, by 24*, 19*, 21* and 23*).

Jurkat T cells [5] = assay: Trypan blue cell death assay in Jurkat T cells; type: cell-based, human; conditions: 24 h
Jurkat T cells [6] = assay: Western blot for PARP cleavage in Jurkat T cells; type: cell-based, human; conditions: 25 μM, 24 h
Procedure: as §2, §1
To determine if the cell death observed (FIG. 16) was due to the induction of apoptosis, a similar experiment was performed in Jurkat T cells, followed by measurement of caspase-3 activation and PARP cleavage.

MCF-7 cells = assay: MTT assay; type: cell-based, human; conditions: 24 h
Procedure: MTT was used to determine effects of polyphenols on overall proliferation of tumor cells. Human breast MCF-7 cells were plated in a 96 well plate and grown to 70-80% confluency, followed by addition of analogs for 24 h. MTT (1 mg/ml) in PBS was then added to wells and incubated at 37° C. for 4 hours to allow for complete cleavage of the tetrazolium salt by metabolically active cells. Next, the MTT was removed and 100 μl of DMSO was added and colorimetric analysis performed using a multilabel plate reader at 560 nm (Victor^3; Perkin Elmer). Absorbance values plotted are the mean from triplicate experiments.
Treated breast cancer (MCF-7) cells were then treated with 5 or 25 μM of peracetate-protected analogs for 24 h, followed by MTT analysis to determine their effects on cell proliferation. Compound 1 at 25 μM inhibited cellular proliferation by 40% (FIG. 11A).

LNCaP cells [7] = assay: Apoptotic morphological changes, phase contrast; type: cell-based, human; conditions: 25 μM, 24 h
LNCaP cells [8] = assay: Soft agar colony formation assay; type: cell-based, human; conditions: 25 μM once at plating, 21 days
[9] = molecular target: T2, proteasomal chymotrypsin-like activity in Jurkat T cells (Homo sapiens, UniProt P28074); assay: Proteasomal chymotrypsin-like activity in intact Jurkat T cells / their lysates; type: cell-based; conditions: 25 μM, 24 h, Jurkat T
T2 construct: measurement of the proteasomal chymotrypsin-like activity in the prepared lysates; endogenous in cells; host or cells: Jurkat T cells (human leukemia)
T2 sequence (P28074 60-263): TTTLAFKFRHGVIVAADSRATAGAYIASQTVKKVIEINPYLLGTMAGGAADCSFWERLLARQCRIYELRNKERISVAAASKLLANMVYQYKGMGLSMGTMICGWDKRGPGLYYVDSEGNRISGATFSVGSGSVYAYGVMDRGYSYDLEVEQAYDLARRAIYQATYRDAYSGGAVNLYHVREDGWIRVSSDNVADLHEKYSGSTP
Procedure: VA-13 or WI-38 cells were grown in 24 well plates (2 ml/well) to 70-80% confluency, followed by 24 h treatment with […] (−)-EGCG, 2, or 2a. […] Suc-Leu-Leu-Val-Tyr-AMC substrate was then added for 2.5 h at 37° C. and the chyrnotrypsin-like activity was measured as described above. Alternatively, cells were treated with each compound at 25 μM for 4 or 24 h, and harvested and lysed. Suc-Leu-Leu-Val-Tyr-AMC (40 μM) was then incubated with the prepared cell lysates for 2.5 h and the chymotrypsin-like activity was measured as described above.
If 1 converts to (−)-EGCG inside the cells, proteasome inhibition in vivo should be detected. To examine this possibility, human Jurkat cells was treated with 25 μM of 1 or (−)-EGCG for 12 or 24 h, followed by measurement of proteasome activity by using a chymotrypsin-like specific fluorogenic substrate in intact cells (FIG. 6a) or Western blot for ubiquinated proteins (FIG. 6b). […] To analyze the intracellular level of polyubiquitinated proteins, cells were lysed after 12 hours incubation and subjected to Western blotting. […] It is possible that the amount of EGCG generated from 1, and thus its biological activity inside the cells depends on a combination of factors: the relative permeability of 1 into the cells, the amount of esterase enzymes and the amount of anti-oxidants that may be present in the cells at any time.
To determine whether the unprotected and protected polyphenol analogs could inhibit the proteasomal activity in intact cells, leukemia Jurkat T cells were treated with each compound at 25 μM for 4 and 24 h, followed by collection of cell pellets and measurement of the proteasomal chymotrypsin-like activity in the prepared lysates.

[10] = system: phosphorylated Akt (p-Akt); assay: Western blot for phosphorylated Akt in Jurkat T cells; type: cell-based, human; conditions: 25 μM, 24 h
Procedure: (−)-EGCG and 1 were incubated with Jurkat T cells for 24 h at 5, 10 and 25 μM, followed by Western blot analysis using a specific antibody to phosphorylated Akt (FIG. 7). […] Actin was used as a loading control.

[11] = Stability test in RPMI 1640 culture medium, HPLC; conditions: 37° C.
Procedure: The stability of 1 with (−)-EGCG in a culture medium (RMPI) is compared, which mimics the body fluid with a pH value around 8. (−)-EGCG or 1 at 0.1 mM was incubated in 1 mL RMPI at 37° C. at indicated times. At different time points, the medium was analyzed by HPLC for the amount of tested compound remaining.

| Structure (SMILES) | IC50 ([1]; up to 25 μM, 30 min incubation, read-out: IC50) [µM] | apoptotic cells (p85 cleaved PARP) (VA-13 cells [2]) [%] | apoptotic nuclear morphology (VA-13 cells [3]) | accumulation of p27 ([4]; 24 h) | time course of ubiquitinated protein accumulation ([4]; up to 8 h) | cell death (trypan blue) (Jurkat T cells [5]; 25 μM) [%] | apoptosis-specific PARP cleavage (Jurkat T cells [6]) | inhibition of cellular proliferation (MCF-7 cells; 5 μM) [%] | inhibition of cellular proliferation (MCF-7 cells; 25 μM) [%] | apoptotic morphological changes (LNCaP cells [7]) | colony formation in soft agar (LNCaP cells [8]) | inhibition of proteasomal chymotrypsin-like activity ([1]; 10 μM, purified 20S proteasome) | inhibition of proteasome activity in intact cells [9] [%] | level of ubiquitinated proteins ([4]; 12 h) | reduction of p-Akt level (densitometry) [10] [%] | cell death (Jurkat T cells [5]; 10 μM) | time after which compound disappeared completely ([11]; 0.1 mM in RPMI, pH around 8) [h] | stability relative to (−)-EGCG ([11]; RPMI culture medium) [times] |
| --- | --- | --- | --- | --- | --- | --- | --- | --- | --- | --- | --- | --- | --- | --- | --- | --- | --- | --- |
| O=C(O[C@@H]1Cc2c(O)cc(O)cc2O[C@H]1c1cc(O)c(O)c(O)c1)c1cccc(O)c1 (relative stereo) [Compound 2, (2S*,3R*)-trans-5,7-Bis(hydroxy)-2-[3,4,5-tris(hydroxy)phenyl]chroman-3-yl 3-(hydroxy)benzoate] | ~9.9 | 21 | little or no apoptosis |  |  |  |  |  |  |  |  |  |  |  |  |  |  |  |
| CC(=O)Oc1cc(OC(C)=O)cc(C(=O)O[C@@H]2Cc3c(OC(C)=O)cc(OC(C)=O)cc3O[C@H]2c2cc(OC(C)=O)c(OC(C)=O)c(OC(C)=O)c2)c1 (relative stereo) [Compound 4a, (2S*,3R*)-trans-5,7-Bis(acetyloxy)-2-[3,4,5-tris(acetyloxy)phenyl]chroman-3-yl 3,5-bis(acetyloxy)benzoate] |  |  |  | Accumulation of p27 | as early as 2 h and lasting up to 8 h | 83 | induced apoptosis-specific PARP cleavage | 50 | 70 | dramatic round-up, detachment, and cellular fragmentation | most potent inhibitors of colony formation |  |  |  |  |  |  |  |
| CC(=O)Oc1cc(OC(C)=O)c2c(c1)O[C@H](c1cc(OC(C)=O)c(OC(C)=O)c(OC(C)=O)c1)[C@H](OC(=O)c1cc(OC(C)=O)c(OC(C)=O)c(OC(C)=O)c1)C2 [Compound 1, peracetate (−)-EGCG] |  |  |  |  |  |  |  |  | 40 | mild morphological changes |  | completely inactive | 42 | comparable levels of ubiquitinated proteins to that of natural (−)-EGCG | 73 | up to 15% | 2 | 6 |
